Test results taken from patent US8216595B2 (priority 2007, dated 2012).
Like-named read-outs stand apart in the source and are kept apart here.

How the values were obtained:
Settings in all cases: mouse, in vivo
HBsAg = tested on: HBsAg
HBsAg (S-protein) [1] = tested on: HBsAg (S-protein); set-up: species or system C57BL/6 female mice
preS antigen [2] = tested on: preS antigen; set-up: species or system C57BL/6 female mice
preS antigen [3] = tested on: preS antigen; set-up: species or system C57BL/6 female mice; remark: listed apart in the source
HBsAg (S-protein) [4] = tested on: HBsAg (S-protein); set-up: species or system C57BL/6 female mice; remark: listed apart in the source
HA antigen = tested on: HA antigen; set-up: species or system C57BL/6 female mice

Compound	IgG2a/IgG1 (%) (HBsAg)	IgG2b/IgG1 (%) (HBsAg)	HBsAg antibody titer (HBsAg (S-protein) [1])	preS antibody titer (preS antigen [2])	preS antibody titer (preS antigen [3])	IgG2a/IgG1 (%) (HBsAg (S-protein) [4])	IgG2b/IgG1 (%) (HBsAg (S-protein) [4])	HA antibody titer (HA antigen)
FSL-1	9.3	122.5	4.4 × 10^5	1.4 × 10^5				
CCCCCCCCCCCCCCCC(=O)N[C@@H](CSC[C@@H](COC(=O)CCCCCCCCCCCCCCC)OC(=O)CCCCCCCCCCCCCCC)C(=O)N[C@@H](CO)C(=O)N[C@@H](CCCCN)C(=O)N[C@@H](CCCCN)C(=O)N[C@@H](CCCCN)C(=O)N[C@@H](CCCCN)C(=O)O (racemic) [Pam3Cys-SKKKK, N-palmitoyl-S-[2,3-bis(palmitoyloxy)-(2RS)-propyl]-[R]-cystein-SKKKK]	17.4	159.4	6.5 × 10^5	1.3 × 10^5	6.2 × 10^5	8.9	153.9	6.8 × 10^5
polyinosinic:polycytidylic acid [Poly I:C]	8.04	89.05	6.3 × 10^5	2.3 × 10^5	6.5 × 10^5	9.1	66.4	8.6 × 10^5
